Source: patent US20250222009A1, “DINUCLEAR GOLD(I) COMPLEXES FOR TREATING CANCER” (KING FAHD UNIVERSITY OF PETROLEUM AND MINERALS, priority 2024, published 2025)

Columns and labels:
[1] = system: A2780 ovarian cancer cells; conditions: from J Med Chem 2022, 65, 14424; cited from earlier work
[2] = system: A2780cis (cisplatin-resistant clone of A2780); conditions: from J Med Chem 2022, 65, 14424; cited from earlier work
MG-63 (osteosarcoma) = experiment: MTT cytotoxicity assay, MG-63; assay type: cell-based; conditions: 72 h, mean, SD in next cell
Protocol: (§1) The human epithelial ovarian cancer A2780 cell line and its cisplatin-resistant clone A2780cis were obtained from Sigma-Aldrich (Milano, Italy). A2780cis cells were continuously exposed to 1 μM cisplatin to maintain cisplatin resistance. A549 cells (Human non-small cell lung cancer), MCF7 (metastatic breast cancer), PC3 (highly aggressive metastatic prostate cancer), and MG63 (osteosarcoma) were obtained from the American Type Culture Collection (ATCC). Cells were authenticated in laboratory using the PowerPlex 16 HS System. A2780, A2780cis, and PC3 cells were cultured in RPMI-1640 medium; MG63 and MCF7 cells were cultured in DMEM, and A549 cells were cultured in F12 NUT-MIX. The culture medium contained about 10% fetal bovine serum (FBS) (Gibco, Thermo Fisher Scientific, Monza, Italy), about 1% (v/v) of penicillin (10,000 units/mL)-streptomycin (10 mg/mL), and about 1% (v/v) L-glutamine (200 mM) (all from Sigma-Aldrich). Cells were cultured at 37° C. in a 5% CO2, fully humidified atmosphere.
2.5×10^3 (PC3, MG63, MCF7) or 4.0×10^3 (A2780, A2780cis, A549) cells were seeded in 96-well microplates in 100 μL culture medium. Cells, allowed to adhere for 24 h, were then treated in triplicate with increasing concentrations of gold compounds. Cisplatin was included as a reference drug. Cell viability was evaluated using 3-(4,5-dimethylthiazol-2-yl)-2,5-diphenyltetrazolium bromide (MTT) assay (Sigma-Aldrich) after 72 h of treatment. Half maximal inhibitory concentrations (IC50), IC25, and IC75 were calculated using the CalcuSyn software version 2 (Biosoft, Ferguson, MO, USA) (See: Chou, T. C.; Talalay, P. Quantitative Analysis of Dose-Effect Relationships: The Combined Effects of Multiple Drugs or Enzyme Inhibitors. Adv. Enzyme Regul. 1984, 22, 27-55, which is incorporated herein by reference in its entirety). Fold resistance was calculated as the ratio of the IC50 of the A2780cis to that of the parental cell line A2780. […]

MCF-7 (breast cancer) = experiment: MTT cytotoxicity assay, MCF-7; assay type: cell-based; conditions: 72 h, mean, SD in next cell
Protocol: as §1
(§2) 2.5×10^3 (PC3, MG63, MCF7) or 4.0×10^3 (A2780, A2780cis, A549) cells were seeded in 96-well microplates in 100 μL culture medium. Cells, allowed to adhere for 24 h, were then treated in triplicate with increasing concentrations of gold compounds. Cisplatin was included as a reference drug. Cell viability was evaluated using 3-(4,5-dimethylthiazol-2-yl)-2,5-diphenyltetrazolium bromide (MTT) assay (Sigma-Aldrich) after 72 h of treatment. Half maximal inhibitory concentrations (IC50), IC25, and IC75 were calculated using the CalcuSyn software version 2 (Biosoft, Ferguson, MO, USA) (See: Chou, T. C.; Talalay, P. Quantitative Analysis of Dose-Effect Relationships: The Combined Effects of Multiple Drugs or Enzyme Inhibitors. Adv. Enzyme Regul. 1984, 22, 27-55, which is incorporated herein by reference in its entirety). Fold resistance was calculated as the ratio of the IC50 of the A2780cis to that of the parental cell line A2780. Alternatively, cell viability was assayed by crystal violet staining (See: Feoktistova, M.; Geserick, P.; Leverkus, M. Crystal Violet Assay for Determining Viability of Cultured Cells. Cold Spring Harb Protoc 2016, 2016, pdb.prot087379, which is incorporated herein by reference in its entirety). Alternatively, after drug treatment, the culture Medium was removed, cells washed, fixed, and stained, and the Crystal Violet solution lasted 20 minutes (See: Sulaiman, A. A. A.; Casagrande, N.; Borghese, C.; Corona, G.; Isab, A. A.; Ahmad, S.; Aldinucci, D.; Altaf M. Design, Synthesis, and Preclinical Activity in Ovarian Cancer Models of New Phosphanegold(I)—N-Heterocyclic Carbene Complexes. J Med Chem 2022, 65, 14424-14440, which is incorporated herein by reference in its entirety).

[3] = system: PC3 (androgen-resistant prostate cancer); experiment: MTT cytotoxicity assay, PC3; assay type: cell-based; conditions: 72 h, mean (SD)
Protocol: as §1, §2

[4] = system: A2780cis (cisplatin-resistant clone of A2780); experiment: MTT cytotoxicity assay, A2780cis; assay type: cell-based, human; conditions: for Fold resistance (A2780cis/A2780): IC50 A2780cis/IC50 A2780; for IC50: MTT, 72 h, mean, SD in next cell
Protocol: as §1, §2

A549 (lung cancer cells) = experiment: MTT cytotoxicity assay, A549; assay type: cell-based, human; conditions: 72 h, mean (SD)
Protocol: as §1, §2

[5] = system: A2780 ovarian cancer cells; experiment: MTT cytotoxicity assay, A2780; assay type: cell-based, human; conditions: 72 h, mean (SD)
Protocol: as §1, §2

A549-MCTSs = experiment: 3D-A549-MCTS viability (PrestoBlue); assay type: cell-based, human
Protocol: To obtain multiple spheroids, 10.0×10^4 A549 cells were seeded in non-adherent conditions on poly-HEMA coated 96 wells (final volume, 200 μL) for four days. After drug treatment (72 h), the cell viability was determined using PrestoBlue Cell Viability Reagent (Thermo Fisher Scientific, Frederick, MD, USA) (See: Casagrande, N.; Celegato, M.; Borghese, C.; Mongiat, M.; Colombatti, A.; Aldinucci, D. Preclinical Activity of the Liposomal Cisplatin Lipoplatin in Ovarian Cancer. Clin Cancer Res 2014, 20, 5496-5506, which is incorporated herein by reference in its entirety).
3D-MCTSs are a model for in vitro drug testing (See: Zanoni, M.; Piccinini, F.; Arienti, C.; Zamagni, A.; Santi, S.; Polico, R.; Bevilacqua, A.; Tesei, A. 3D Tumor Spheroid Models for in Vitro Therapeutic Screening: A Systematic Approach to Enhance the Biological Relevance of Data Obtained. Sci Rep 2016, 6, 19103, which is incorporated herein by reference in its entirety) and to test drug tissue penetration. Thus, the effects of complex 3 in A549-MCTSs were determined by cultivating tumor cells in non-adherent conditions on poly-HEMA coated wells. […] Representative micro-photographs of A549-MCTSs treated with complex 3 (0.3-5 μM) and with cisplatin (15-250 μM) are shown in FIG. 9C.

SMILES | anti-proliferative activity in A2780 cells (comparison) [1] | anti-proliferative activity in A2780cis cells (comparison) [2] | IC50 (MG-63 (osteosarcoma)) | IC50 (MCF-7 (breast cancer)) | IC50 [3] | Fold resistance (A2780cis/A2780) [4] | IC50 [4] | IC50 (A549 (lung cancer cells)) | IC50 [5] | IC50 (A549-MCTSs; 72 h, PrestoBlue, poly-HEMA coated wells) | IC50 fold higher than complex 3 in A549-MCTSs (A549-MCTSs; cisplatin vs complex 3) | IC50 ([3]; listed as cisplatin) | IC50 (A549 (lung cancer cells); listed as cisplatin)
CC(C)c1cccc(C(C)C)c1-n1cc[n+](-c2c(C(C)C)cccc2C(C)C)[c]1[Au-][P+](C1CCCCC1)(C1CCCCC1)C1CCCCC1.ClC(Cl)Cl.F[P-](F)(F)(F)(F)F [[Au(IPr)(Cy3P)]PF6·CHCl3] | more active | more active |  |  |  |  |  |  |  |  |  |  | 
CC(C)c1cccc(C(C)C)c1-n1ccn(-c2c(C(C)C)cccc2C(C)C)[c]1=[Au-][P+](CCC[P+]([Au-]=[c]1n(-c2c(C(C)C)cccc2C(C)C)ccn1-c1c(C(C)C)cccc1C(C)C)(c1ccccc1)c1ccccc1)(c1ccccc1)c1ccccc1 [Complex 2, [(Au(IPr))2(C27H26P2)](PF6)2] |  |  | 420 nM | 280 nM | 250 nM | 1.61 | 450 nM | 260 nM | 280 nM |  |  |  | 
N.N.[Cl][Pt][Cl] [Cisplatin, reference compound] |  |  |  | 22200 nM | 3320 nM | 6.93 | 10400 nM | 6210 nM | 1510 nM | 44000 nM | 46 fold | 3300 nM | 6200 nM
CC(C)c1cccc(C(C)C)c1-n1ccn(-c2c(C(C)C)cccc2C(C)C)[c]1=[Au-][P+](CC[P+]([Au-]=[c]1n(-c2c(C(C)C)cccc2C(C)C)ccn1-c1c(C(C)C)cccc1C(C)C)(c1ccccc1)c1ccccc1)(c1ccccc1)c1ccccc1 [Complex 1, [(Au(IPr))2(C26H24P2)](PF6)2] |  |  | 310 nM | 170 nM | 280 nM | 1.18 | 330 nM | 220 nM | 280 nM |  |  |  | 
